The data set concerns neuroblastoma cells (N-115 cell line). In words: Shilajit's toxicity in nerve cell culture (MTT assay, calcein-AM). In kind it is cell-based. Conditions: 10 mM H2O2, positive control of neuronal death. The protocol: The toxicity of the composition's main component was determined, whose toxicity in nerve cells was unknown up to now. This study consisted in the application of concentrations ranging from 10 to 50 mg/mL to a culture of neuroblastoma cells (N-115 cell line) (MTT assay) and subsequent observation of neuronal death through fluorescent microscopy using the calcein-AM method that determines the morphologic integrity.

Consider `OO` [H2O2], for which the “% neuronal death” value was 100.0% and the A550 is recorded as 0.050.
